Where “and” joins values, the source holds several entries; their conditions need not be identical. Equal values may be shown once.
Tests used:
PC3 cells = test: Immunoblot of HMW/LMW PARP1 in chromatin fractions; type: cell-based, human; conditions: normalized to DMSO = 1, IR 7 Gy, replicates
Description: To identify suitable cell lines to test PARGi, we evaluated PARG protein expression patterns on a panel of prototypic cancer cell lines. Cells were fractionated into cytoplasmic, nuclear and chromatin, and then PARG expression and localization were evaluated using an anti-PARG antibody (Fig. 4a). A varying level of PARG was detected in three cellular compartments. In prostate adenocarcinoma (PC3) and breast mammary epithelial (MCF-7) cells, PARG level was the highest in the cytoplasm, followed by the nucleus, with the lowest seen in the chromatin fraction. […] The PC3 cell line, with one of the highest levels of PARG expression, was selected for our initial PARGi testing. PC3 cells were treated with either DMSO or JA2131 for 2 h, then exposed to 7 Gy of IR and allowed to recover for a designated time period before harvesting and cell fractionation. Chromatin fractions of the cell lysates were analyzed by immunoblotting with PARP1 specific antibody (Fig. 4b), and the PARylation states of PARP1 were monitored as a marker for PARG inhibition. […] In these cells, PARylated PARP1 in response to PARG inhibition appeared as a discrete HMW (DHMW) proteins with limited smearing, as observed previously. […] To assess whether DHMW was due to PARylation and not any other post-translational modifications, chromatin fractions of the PARGi-treated PC3 cell-lysates were treated with purified PARG, followed by anti-PARP1 western blotting. This led to the restoration of LMW PARP1, indicating PARylation was indeed causing the DHMW (Fig. 4c, d). Thus, a dynamic equilibrium between DHMW and LMW nuclear PARP1 exists in cells, and PARGi shifts this equilibrium towards DHMW.
Fig. 4 JA2131 induces hyperPARylation of PARP1. a Subcellular PARG protein expression patterns in cultured cells. […] Chromatin bound cell-extracts were analyzed with anti-PARP1 antibody (upper panel) followed by probing with total Histone H2AX (t-H2AX, lower panel) as the loading control. c DMSO or 2131-treated PC3 cells were irradiated and recovered for 2 h as above, chromatin fractions were then incubated with or without purified PARG enzyme (±PARG) for 30 min at 37 °C then immunoblotted with anti-PARP1 (upper panel) and then with anti-histone H3 (lower panel) as loading control. d Quantitative analysis of western blot of b, where expression of PARP1 levels in DMSO treated was normalized to 1. […]

PARG in PC3 cells = biological target: T1, PARG in PC3 cells (Homo sapiens, UniProt Q86W56); test: Cellular thermal shift assay (CETSA); type: cell-based; conditions: 10 μM JA2131
T1 construct: endogenous in cells; host or cells: PC3
T1 sequence (Q86W56 whole entry): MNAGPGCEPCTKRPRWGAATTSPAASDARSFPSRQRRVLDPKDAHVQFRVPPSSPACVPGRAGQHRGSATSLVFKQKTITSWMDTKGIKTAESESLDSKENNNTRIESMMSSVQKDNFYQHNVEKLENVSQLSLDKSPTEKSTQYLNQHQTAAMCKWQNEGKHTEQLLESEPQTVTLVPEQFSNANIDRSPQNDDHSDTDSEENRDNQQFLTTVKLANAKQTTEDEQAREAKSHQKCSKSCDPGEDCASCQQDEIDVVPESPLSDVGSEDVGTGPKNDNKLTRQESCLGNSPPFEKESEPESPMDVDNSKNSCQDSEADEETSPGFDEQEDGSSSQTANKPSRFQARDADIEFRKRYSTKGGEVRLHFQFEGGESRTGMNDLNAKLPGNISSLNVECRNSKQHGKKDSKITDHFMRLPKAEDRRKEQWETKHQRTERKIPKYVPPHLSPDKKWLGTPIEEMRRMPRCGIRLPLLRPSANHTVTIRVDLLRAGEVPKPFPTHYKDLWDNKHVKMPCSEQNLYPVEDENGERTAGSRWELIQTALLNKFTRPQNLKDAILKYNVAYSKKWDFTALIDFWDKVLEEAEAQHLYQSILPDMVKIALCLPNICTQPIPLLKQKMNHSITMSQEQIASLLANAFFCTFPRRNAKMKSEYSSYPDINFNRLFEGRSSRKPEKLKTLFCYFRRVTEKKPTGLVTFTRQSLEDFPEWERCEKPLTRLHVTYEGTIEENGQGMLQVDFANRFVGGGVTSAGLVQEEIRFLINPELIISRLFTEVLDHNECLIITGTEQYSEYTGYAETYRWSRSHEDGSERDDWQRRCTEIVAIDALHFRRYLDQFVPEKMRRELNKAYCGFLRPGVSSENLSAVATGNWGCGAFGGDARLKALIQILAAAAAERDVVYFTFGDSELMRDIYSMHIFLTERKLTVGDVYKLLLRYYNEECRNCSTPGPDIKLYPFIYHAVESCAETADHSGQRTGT
Description: (§1) CETSA was performed as described by Molina et al.[44]. Briefly, PC3 cells were treated with 10 μM JA2131 or an equivalent volume of DMSO for 2 h, washed three times with PBS and extracted for total cell lysate. Ten percent glycerol was added to the samples before subjecting to heat. […] Then, samples were centrifuged at 14,000 rpm for 20 min at 4 °C. Supernatants were carefully removed and analyzed by western blotting analysis.
(§2) Supplementary Fig. 14: Representative CETSA western blots for PARG and PCNA. PC3 cells
(§3) treated with 10 µM JA2131 or DMSO were temperature shocked as described in Materials and […]
(§4) PCNA antibody. Anti -Histone H3 was used as loading control.
(§5) (1 picture or pasted object on this page, not shown here)

PCNA in PC3 cells = biological target: T2, PCNA in PC3 cells (Homo sapiens, UniProt P12004); test: Cellular thermal shift assay (CETSA), control protein; type: cell-based; conditions: 10 μM JA2131
T2 construct: endogenous in cells; host or cells: PC3
T2 sequence (P12004 whole entry): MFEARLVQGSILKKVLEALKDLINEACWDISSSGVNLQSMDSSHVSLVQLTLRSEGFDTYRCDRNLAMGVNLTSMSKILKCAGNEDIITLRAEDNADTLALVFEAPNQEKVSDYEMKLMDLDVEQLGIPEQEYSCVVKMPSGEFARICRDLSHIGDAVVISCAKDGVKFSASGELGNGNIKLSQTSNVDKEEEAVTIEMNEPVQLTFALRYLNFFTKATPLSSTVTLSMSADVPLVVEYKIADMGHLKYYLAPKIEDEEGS
Description: as §1, §2, §3, §4, §5

[1] = chromatin fraction incubated with purified PARG (+)

SMILES: Cn1c(=S)c2[nH]c(SCCN3CCOCC3)nc2n(C)c1=O [JA2131]
- HMW PARP1 (PC3 cells; [1]): 0.2746 and 0.8185 and 0.3259
- LMW PARP1 (PC3 cells; [1]): 1.147 and 1.092 (2×)
- HMW PARP1 (PC3 cells; without added purified PARG): 0.6751 and 1.387 and 4.419
- LMW PARP1 (PC3 cells; without added purified PARG): 0.7041 and 0.9592 (2×)
- stabilization of PARG proteins in cells (PARG in PC3 cells): 9 °C
- Band intensities, anti-PARG (PARG in PC3 cells; Temperature 4 °C): 100
- Band intensities, anti-PARG (PARG in PC3 cells; Temperature 51 °C): 93.0607
- Band intensities, anti-PARG (PARG in PC3 cells; Temperature 62 °C): 68.3696
- Band intensities, anti-PARG (PARG in PC3 cells; Temperature 68 °C): 57.8125
- Band intensities, anti-PARG (PARG in PC3 cells; Temperature 72 °C): 44.7308
- Band intensities, anti-PARG (PARG in PC3 cells; Temperature 77 °C): 28.3012
- Band intensities, anti-PARG (PARG in PC3 cells; Temperature 85 °C): 16.0619
- change in thermal stability of PCNA control (PCNA in PC3 cells): no significant change in thermal stability
- Band intensities, anti-PCNA (PCNA in PC3 cells; Temperature 4 °C): 100
- Band intensities, anti-PCNA (PCNA in PC3 cells; Temperature 51 °C): 91.1484
- Band intensities, anti-PCNA (PCNA in PC3 cells; Temperature 62 °C): 38.4112
- Band intensities, anti-PCNA (PCNA in PC3 cells; Temperature 68 °C): 12.3183
- Band intensities, anti-PCNA (PCNA in PC3 cells; Temperature 72 °C): 4.285
- Band intensities, anti-PCNA (PCNA in PC3 cells; Temperature 77 °C): 3.2332
- Band intensities, anti-PCNA (PCNA in PC3 cells; Temperature 85 °C): 4.145

Reference: paper PMC6906431, “Selective small molecule PARG inhibitor causes replication fork stalling and cancer cell death” (Nature Communications, 2019)
